Test results published in PMC8913300, “Two distinct classes of cochaperones compete for the EEVD motif in heat shock protein 70 to tune its chaperone activities” (The Journal of Biological Chemistry, 2022).

Assays:
DnaJB4 [1] = target: T1, DnaJB4 (Homo sapiens, UniProt Q9UDY4); assay: Differential scanning fluorimetry of DnaJB4 with chaperone peptides; format: binding; settings: 5 μM DnaJB4, 100 μM peptide; for DnaJB4 apparent melting temperature (Tm,app): 5× Sypro Orange, JDP binding buffer, mean ± SD (n = 4), without peptide 57 ± 0.06 °C
T1 construct: 6-His with TEV-cleavable linker (N, cleaved yes); made in house; host or cells: Escherichia coli BL21 (DE3) Rosetta
Method: DSF was performed with a 15-μl assay volume in 384-well Axygen quantitative PCR plates (Fisher Scientific) on a qTower ([3]) real-time PCR thermal cycler (Analytik Jena). Fluorescence intensity readings were taken over 70 cycles in “up-down” mode, where reactions were heated to desired temperature and then cooled to 25 °C before reading. The temperature was increased 1 °C per cycle. Each well contained 5 μM DnaJB4, 5 × Sypro Orange dye (Thermo Fisher), and 100 μM of peptide in JDP binding buffer. Fluorescence intensity data were truncated between 45 and 70 °C, plotted relative to temperature, and fit to a Boltzmann Sigmoid in Prism 9.0 (GraphPad). DnaJB4 apparent melting temp (Tm,app) was calculated based on the following equation: Y = Bottom + ((Top-Bottom)/(1 + exp(Tm-T/Slope))).

DnaJB4 [2] = target: T1, DnaJB4; assay: DnaJB4 FP competition (displacement of Hsp72 tracer); format: binding; settings: 100 μM peptide, 5 μM DnaJB4, 20 nM Hsp72 tracer, 30 min room temperature; for % tracer displacement: relative to DMSO control, mean ± SD (n = 4)
Method: (§1) All FP experiments were performed in 384-well, black, low-volume, round-bottom plates at a final assay volume of 18 μl (Corning 4511). Polarization values in millipolarization units (mP) were measured at an excitation wavelength of 485 nm and an emission wavelength of 525 nm, with 100 flashes per read using a Spectramax M5 plate reader (Molecular Devices). All experiments were performed 2 times in quadruplicate. Experimental data were analyzed using GraphPad Prism 9. Saturation binding data were background subtracted, and curves were fit using the model [Agonist] versus response (three parameters). For competition experiments, data were background subtracted to tracer alone and normalized to DMSO control to determine relative tracer displacement.
Unlabeled peptides were assessed for the ability to compete with the Hsp72 tracer. Briefly, 100 μM peptides were incubated with 5 μM DnaJB4 and 20 nM Hsp72 tracer in JDP binding buffer (see above). The plate was covered from light and allowed to incubate at room temperature for 30 min prior to reading.

CHIP = target: T2, CHIP (Homo sapiens, UniProt Q9UNE7); assay: CHIP FP competition (displacement of Hsp72 tracer); format: binding; settings: 100 μM peptide, 1.58 μM CHIP, 20 nM Hsp72 tracer, 30 min room temperature
T2 construct: 6-His with TEV-cleavable linker (N, cleaved yes); made in house; host or cells: E. coli BL21(DE3)
T2 sequence (Q9UNE7 1-303): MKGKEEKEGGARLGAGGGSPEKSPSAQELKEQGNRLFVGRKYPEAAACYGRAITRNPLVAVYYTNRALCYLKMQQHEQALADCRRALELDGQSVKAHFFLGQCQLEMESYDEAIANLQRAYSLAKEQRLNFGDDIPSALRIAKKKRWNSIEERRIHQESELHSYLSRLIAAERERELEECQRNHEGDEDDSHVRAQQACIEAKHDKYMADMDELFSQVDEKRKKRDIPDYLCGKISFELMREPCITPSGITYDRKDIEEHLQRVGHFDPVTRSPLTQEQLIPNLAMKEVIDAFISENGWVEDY
Method: as §1
Mixtures of 1.58 μM CHIP and 20 nM Hsp72 tracer were incubated with 100 μM unlabeled competitor peptides in CHIP FP assay buffer (50 mM Hepes pH 7.4, 50 mM KCl, 0.01% Triton X-100). The plate was covered from light and allowed to incubate at room temperature for 30 min prior to reading.

Hsp72–DnaJB4 complex = assay: Luciferase refolding by Hsp72/DnaJB4 in the presence of TPR cochaperones; format: biochemical; settings: 1 μM Hsp72, 100 nM denatured luciferase, 120 nM DnaJB4; CHIP titration or 10 μM TPR protein; 1 h at 37 °C
Method: (§2) Experiments were performed as described ([14]). Briefly, Renilla luciferase (Promega) was denatured in 8 M GdnHCl for 2 h at room temperature. Hsp72 (1 μM) and denatured luciferase (100 nM) were diluted into a working concentration in buffer containing an ATP regenerating system (23 mM Hepes, 120 mM KAc, 1.2 mM MgAc, 15 mM DTT, 61 mM creatine phosphate, 35 units/ml creatine kinase, and 5 ng/μl bovine serum albumin, pH 7.4). A titration series of DnaJB4 was added, and the reaction was initiated with the addition of 2.5 mM ATP. For competition assays with DnaJB4, complexes of Hsp72 (1 μM), denatured luciferase (100 nM), and DnaJB4 (120 nM) were incubated with either a titration of CHIP or 10 μM of indicated TPR protein. In all cases, the assay was allowed to incubate for 1 h at 37 °C in white, 96-well flat-bottom plates (Corning 3990). Luminescence was measured using the SteadyGlo luminescence reagent (Promega), and percent refolded luciferase was calculated using a standard curve of 100 to 0 nM native luciferase.

Hsp72 ATPase activity = assay: Intrinsic ATPase activity of Hsp72 variants (malachite green); format: biochemical; settings: 1 μM Hsp72, 2.5 mM ATP, 1 h at 37 °C, mean ± SD (n = 3)
Method: ATPase assays were carried out using the malachite green assay as described ([14], [83]). In brief, 1 μM Hsp72 and various concentrations of DnaJB4 were added to clear 96-well plates, and the reactions were initiated by addition of 2.5 mM ATP. Reactions were allowed to proceed for 1 h at 37 °C, after which they were developed using malachite green reagent and quenched with sodium citrate. Plate absorbance was measured at 620 nm, and a standard curve of sodium phosphate was used to convert the absorbance values to pmol ATP/μM Hsp72/min. Vmax and Km, app were derived as fit parameters to a modified Michaelis–Menten model (ATPase rate=Vmax∗[DnaJB4]/(Km, app+[DnaJB4])) where Vmax reflects the maximal increased ATP hydrolysis conferred by DnaJB4 binding and Km,app represents the half-maximal concentration of DnaJB4 binding to and stimulating the ATPase activity of Hsp72.

[3] = tested on: denatured Renilla luciferase; assay: Luciferase refolding by Hsp72 variants in the presence of DnaJB4; format: biochemical; settings: 1 μM Hsp72, 100 nM denatured luciferase, DnaJB4 titration, 1 h at 37 °C
Method: as §2

[4] = tested on: denatured Renilla luciferase; assay: Luciferase refolding by Hsp72 variants in the presence of DnaJA2; format: biochemical; settings: 1 μM Hsp72, 100 nM denatured luciferase, 1 h at 37 °C

T1 sequence (Q9UDY4 whole entry): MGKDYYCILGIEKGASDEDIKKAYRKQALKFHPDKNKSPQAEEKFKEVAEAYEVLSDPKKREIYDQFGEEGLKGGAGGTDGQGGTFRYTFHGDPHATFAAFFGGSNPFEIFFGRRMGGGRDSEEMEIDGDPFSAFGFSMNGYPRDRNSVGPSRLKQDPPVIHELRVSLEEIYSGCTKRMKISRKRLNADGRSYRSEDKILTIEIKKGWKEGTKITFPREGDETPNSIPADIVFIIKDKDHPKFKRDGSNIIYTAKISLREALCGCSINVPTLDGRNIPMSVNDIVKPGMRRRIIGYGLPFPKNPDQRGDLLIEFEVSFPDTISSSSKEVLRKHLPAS

Substance	DnaJB4 apparent melting temperature (Tm,app) (DnaJB4 [1]) [°C]	% tracer displacement (DnaJB4 [2]) [%]	binding to DnaJB4 in FP competition relative to WT Hsp72 peptide (DnaJB4 [2])	intrinsic ATPase activity (Hsp72 ATPase activity) [pmol ATP/min]	other results
GSGPTIEEVD [Hsp72, unlabeled, N-acetylated 10-mer peptide corresponding to the C terminus of Hsp72/HSPA1A]	58 ± 0.21	40.2 ± 4.6			positive shift in the melt curves (DnaJB4 [1]; versus no peptide): 1 to 2 °C
GSGPTIEEVD-CONH2 [peptide with an amidated Hsp72 C terminus]			drastically reduced binding		binding to CHIP in FP competition relative to WT Hsp72 peptide (CHIP): carboxylate was important for binding to CHIP
HOP: Hsc70 organizing protein, TPR cochaperone					effect on client (luciferase) refolding by Hsp72–DnaJB4 (Hsp72–DnaJB4 complex): suppressed luciferase refolding
Hsp72 I637A: full-length Hsp72 with point mutation of the critical P5 isoleucine residue				15.8 ± 3.9	ability to coordinate with DnaJB4 in luciferase refolding [3]: nearly completely impaired; luciferase refolding in the presence of DnaJA2 [4]: comparably with WT
Hsp72 ΔEEVD: mutant of full-length Hsp72 in which the EEVD motif was deleted				4.6 ± 1.9	ability to coordinate with DnaJB4 in luciferase refolding [3]: nearly completely impaired
Hsp90β: unlabeled, N-acetylated 10-mer peptide corresponding to the C terminus of Hsp90β	57 ± 0.20	−1.3 ± 2.2			
Hsp90⍺: unlabeled, N-acetylated 10-mer peptide corresponding to the C terminus of Hsp90⍺	57 ± 0.15	−7.7 ± 1.5			
IEEVD			further worsened it		
TIEEVD			significantly weakened affinity		
WT Hsp72: full-length recombinant Hsp72/HSPA1A				10.9 ± 2.8	
